Results as given in PubChem BioAssay (NCI).
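Five compound concentrations were applied to cells in 96-well plates for 48 hours; endpoints were derived by simple linear interpolation of the resulting dose-response curve. Abbreviation: GI50, concentration required for 50% inhibition of growth. TGI marks complete inhibition of growth.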

Assays:
Test in all cases: NCI anticancer screen, dose series, 48 h
[1] = test system: OVCAR-4 ovarian
[2] = test system: CAKI-1 renal
[3] = test system: HCC-2998 colon
[4] = test system: SF-268 CNS
[5] = test system: ACHN renal
[6] = test system: RXF 393 renal
[7] = test system: HCT-15 colon
[8] = test system: OVCAR-8 ovarian
[9] = test system: NCI-H226 lung
[10] = test system: MCF7 breast

C=CCn1c(C)nc2ccc(Nc3nc(Nc4ccc(F)cc4)nc4ccccc34)cc21
GI50 [1]: 2.06 µM
TGI [1]: 5.81 µM
GI50 [2]: 6.86 µM
TGI [2]: 27.5 µM
GI50 [3]: 8.87 µM
TGI [3]: 23.5 µM
GI50 [4]: 8.69 µM
TGI [4]: 27.8 µM
GI50 [5]: 1.99 µM
TGI [5]: 4.31 µM
GI50 [6]: 1.23 µM
TGI [6]: 2.57 µM
GI50 [7]: 2.84 µM
TGI [7]: 10.4 µM
GI50 [8]: 3.05 µM
TGI [8]: 13.6 µM

CCC(O)c1ccc(Br)cc1NC(=O)c1cccc(Cl)c1 (stereo not drawn)
GI50 [1]: 30 µM
TGI [1]: > 100 µM
GI50 [2]: 10.2 µM
TGI [2]: 51.4 µM
GI50 [3]: 20.5 µM
TGI [3]: 45.4 µM
GI50 [4]: 26.2 µM
TGI [4]: 93.2 µM
GI50 [9]: 21.5 µM
TGI [9]: 64.6 µM
GI50 [5]: 23.1 µM
TGI [5]: > 100 µM
GI50 [7]: 23.1 µM
TGI [7]: > 100 µM
GI50 [10]: 12 µM
TGI [10]: 96 µM
GI50 [8]: 23.7 µM
TGI [8]: 77.9 µM

CCC[CH2][Sn]([Cl])([Cl])[CH2]CCC
GI50 [1]: 1.4 µM
TGI [1]: 2.78 µM
GI50 [2]: 0.295 µM
TGI [2]: 1.44 µM
GI50 [3]: 1.1 µM
TGI [3]: 2.32 µM
GI50 [4]: 0.457 µM
TGI [4]: 1.77 µM
GI50 [9]: 1.82 µM
TGI [9]: 5.01 µM
GI50 [5]: 0.449 µM
TGI [5]: 1.62 µM
GI50 [6]: 0.232 µM
TGI [6]: 0.49 µM
GI50 [7]: 0.738 µM
TGI [7]: 2.24 µM
GI50 [8]: 1.88 µM
TGI [8]: 7.02 µM

CCc1ccc(NC(=O)NC(=O)c2ccccc2[N+](=O)[O-])cc1Oc1ncc(Cl)cn1
TGI [1]: > 100 µM
TGI [3]: 0.0695 µM
TGI [4]: > 16.9 µM
TGI [9]: 0.0796 µM
TGI [5]: > 100 µM
TGI [6]: 73.4 µM
TGI [7]: > 100 µM
TGI [10]: > 100 µM
TGI [8]: > 100 µM

C/C=C(/I)CBr
TGI [1]: 49.3 µM
TGI [2]: 2.85 µM
TGI [3]: 29.4 µM
TGI [4]: 74.5 µM
TGI [9]: 38.5 µM
TGI [5]: 45.5 µM
TGI [6]: 31.2 µM
TGI [7]: 51.2 µM
TGI [8]: 45.4 µM

CC[n+]1oc(C(=O)c2ccc(Cl)cc2)c(-c2ccccc2)c1-c1ccccc1.[Cl][Fe]([Cl])([Cl])[Cl]
GI50 [1]: 65.7 µM
TGI [1]: > 100 µM
GI50 [3]: 60.8 µM
TGI [3]: > 100 µM
GI50 [4]: 36.1 µM
TGI [4]: > 100 µM
GI50 [9]: 75.2 µM
TGI [9]: > 100 µM
GI50 [5]: 33.5 µM
TGI [5]: 99.3 µM
GI50 [7]: 72.6 µM
TGI [7]: > 100 µM
GI50 [10]: 17.4 µM
TGI [10]: 65.5 µM
GI50 [8]: 45.5 µM
TGI [8]: > 100 µM

CN(C)CCNc1ccc(CO)c2sc3ccc(O)cc3c(=O)c12
TGI [1]: 13.1 µM
TGI [2]: > 25.9 µM
TGI [3]: 7.4 µM
TGI [4]: 8.82 µM
TGI [9]: 8.48 µM
TGI [5]: 6.75 µM
TGI [6]: 4.44 µM
TGI [7]: 14.2 µM
TGI [8]: 8.89 µM

CC1=Nc2c(ccc3c2C(=O)c2ccccc2C3=O)NC(c2cccc3c2CCC3)C1 (stereo not drawn)
TGI [1]: > 100 µM
TGI [2]: > 96.8 µM
TGI [3]: > 100 µM
TGI [4]: > 100 µM
TGI [9]: > 100 µM
TGI [5]: > 100 µM
TGI [6]: > 100 µM
TGI [7]: > 100 µM
TGI [8]: > 100 µM

Cc1ccccc1NC(=O)c1cc(-c2ccc([N+](=O)[O-])cc2)nc(=S)[nH]1
TGI [1]: > 100 µM
TGI [2]: > 100 µM
TGI [3]: > 100 µM
TGI [4]: > 100 µM
TGI [9]: > 100 µM
TGI [5]: > 100 µM
TGI [6]: > 100 µM
TGI [7]: > 100 µM
TGI [8]: > 100 µM

CCOC(=O)C(=O)Nc1ccccc1C
TGI [1]: > 100 µM
TGI [2]: > 100 µM
TGI [3]: > 100 µM
TGI [4]: > 100 µM
TGI [9]: > 100 µM
TGI [5]: > 100 µM
TGI [6]: > 100 µM
TGI [7]: > 100 µM
TGI [8]: > 100 µM

COc1ccc(OC)c(NC(=O)CCC/C(CC(=O)c2ccc(O)c(OC)c2)=N\Nc2nnc(C)n2N)c1
TGI [1]: > 100 µM
TGI [2]: > 100 µM
TGI [3]: > 100 µM
TGI [4]: > 100 µM
TGI [9]: > 100 µM
TGI [5]: > 100 µM
TGI [7]: > 100 µM
TGI [8]: > 100 µM

N#Cc1ccccc1C(Cl)(Cl)c1cnccn1
TGI [1]: > 100 µM
TGI [2]: > 100 µM
TGI [3]: > 100 µM
TGI [4]: > 100 µM
TGI [9]: > 100 µM
TGI [5]: > 100 µM
TGI [6]: > 100 µM
TGI [8]: 77 µM

CC(C)(C)c1cc(C(O)(C(F)(F)F)C(F)(F)F)c2c(c1)C(C(F)(F)F)(C(F)(F)F)OC(C)(C(C)(C)C)N2 (stereo not drawn)
TGI [1]: > 100 µM
TGI [3]: 93.6 µM
TGI [9]: 8.53 µM
TGI [5]: 12.1 µM
TGI [6]: 16.2 µM
TGI [7]: 14.5 µM

COC(=O)/C=C(C)/C=C/C1OC(C)OCC1O (stereo not drawn)
TGI [1]: > 100 µM
TGI [2]: > 100 µM
TGI [3]: > 100 µM
TGI [4]: > 100 µM
TGI [9]: > 100 µM
TGI [5]: > 100 µM
TGI [7]: > 100 µM
TGI [8]: > 100 µM

COc1ccc(NC(=O)/C(=C/c2ccccc2)C(C)=O)cc1
TGI [1]: 24.6 µM
TGI [2]: 29.2 µM
TGI [3]: 33.5 µM
TGI [4]: 34.3 µM
TGI [9]: 96.9 µM
TGI [5]: 42.2 µM
TGI [7]: 40.8 µM
TGI [8]: 51.5 µM

CCOC(=O)C(Cc1c[nH]c2c(N(CCO)CCO)cccc12)(NC(C)=O)C(=O)OCC
GI50 [1]: 196 µM
TGI [1]: > 1000 µM
GI50 [3]: > 1000 µM
TGI [3]: > 1000 µM
GI50 [4]: > 1000 µM
TGI [4]: > 1000 µM
GI50 [9]: 439 µM
TGI [9]: > 1000 µM
GI50 [5]: 119 µM
TGI [5]: > 1000 µM
GI50 [6]: > 1000 µM
TGI [6]: > 1000 µM
GI50 [7]: 182 µM
TGI [7]: > 1000 µM
GI50 [10]: 141 µM
TGI [10]: 305 µM
GI50 [8]: > 1000 µM
TGI [8]: > 1000 µM

CC(Oc1ccc2c(-c3ccccc3)cc(=O)oc2c1)C(=O)O (stereo not drawn)
TGI [1]: > 100 µM
TGI [2]: > 100 µM
TGI [3]: > 100 µM
TGI [4]: > 100 µM
TGI [9]: > 100 µM
TGI [5]: > 100 µM
TGI [6]: > 100 µM
TGI [8]: > 100 µM

Cn1c(-c2c(N)n(Nc3cccc(Cl)c3)c3nc(C#N)c(C#N)nc23)nc2ccccc21
GI50 [1]: 1.36 µM
TGI [1]: 16.4 µM
GI50 [2]: 7.29 µM
TGI [2]: 43.2 µM
GI50 [3]: 6.95 µM
TGI [3]: 16.9 µM
GI50 [4]: 10 µM
TGI [4]: 35.6 µM
GI50 [5]: 5.44 µM
TGI [5]: 15 µM
GI50 [6]: 0.0138 µM
TGI [6]: 3.54 µM
GI50 [7]: 3.45 µM
TGI [7]: 17.2 µM
GI50 [10]: 4.96 µM
TGI [10]: > 50 µM
GI50 [8]: 7.56 µM
TGI [8]: 26.4 µM

O=C(Cc1nc2ccccc2c(=O)n1-c1ccccc1Cl)c1ccncc1
TGI [1]: > 100 µM
TGI [2]: > 100 µM
TGI [3]: > 100 µM
TGI [4]: > 100 µM
TGI [9]: > 100 µM
TGI [5]: > 100 µM
TGI [6]: > 100 µM
TGI [7]: > 100 µM
TGI [8]: > 100 µM
